The nature of data set [1]: Crystalline stability: stability factors test at high humidity, high temperature and light (PXRD and HPLC content). It is filed as physicochemical. As to conditions: for Content (%): HPLC content (w/w, %); for Crystal form: PXRD; for content (all conditions) / morphology of crystal form: high humidity, high temperature and light, each for 10 days. From the text:
The samples were taken at day 5 and day 10 respectively for PXRD (polycrystalline X ray diffraction) detection and HPLC content (w/w, %) determination, and the results were compared with that of day 0.

Data set [2] can be described thus: Mechanical stress of the crystal form (ball milling, PXRD). It is filed as physicochemical. Conditions: for Crystal form after ball milling: ball mill 400 r/min, PXRD, duplicate mortars; for change of crystal form under ball milling pressure: ball milled for 30 min, 4 h and 6 h. Here is the method: Samples were taken when the ball milled at 30 min, 4 h and 6 h respectively, and then for PXRD test. The change of crystal form was observed, and the experiment was carried out parallelly in duplicate.

The nature of data set [3]: Pharmacokinetics of Crystal Form A and Crystal Form B capsules in beagle dogs. It is filed as in vivo. How it is done: There were 12 beagle dogs for the experiment, half male and half female, weighing 11.0-14.1 kg, provided by the Teaching and Experimental Ground of Agricultural College of Shanghai Jiao Tong University. The animals were raised in single cage, and the feeding amount can be adjusted according to the weight or feed intake of the animals. The animals can drink water freely, with 12/12 h light/dark cycle adjustment, constant temperature of 23±1° C., humidity of 50-60%. On the day of administration, the experimental animals were fasted overnight before administration. […] The animals were weighed on the day of administration, and the dosage was determined according to their body weight. The above-mentioned grouped beagle dogs were administered according to the method in Table 5 below. [table] 1 mL of whole blood was collected from the cephalic vein at blood collection time points of 0.0830, 0.250, 0.500, 1.00, 2.00, 4.00, 8.00, 24.00 h after administration. […] The analytical method was performed by liquid chromatography tandem triple quadrupole mass spectrometry (LC MS/MS). […] The peak concentration (Cmax) and the peak time (Tmax) were obtained from the plasma concentration-time curve graph. The log-linear trapezoidal method (see: Gabrielsson J, Weiner D. Pharmacokinetic and pharmacodynamic data analysis: concepts and applications[M]. CRC Press, 2001, pages 141-146) was used to calculate the following parameters: elimination phase half-life (T1/2), mean retention time extrapolated from zero time point to infinity (MRT0-inf), mean retention time from zero time point to the last detectable concentration time point (MRT0-last), the area under the plasma concentration-time curve from the zero time point to the last detectable concentration time point (AUC0-last), and the area under the plasma concentration-time curve extrapolated from the zero time point to infinity (AUC0-inf). The experimental data was expressed as the mean (Mean)±standard deviation (S.D.). The excel software t-test was used for statistical comparison.

Setting [4] is: Day 10 at high humidity (R.H. 92.5%).
Where [5] appears, read: Day 10 at high temperature (60° C.).
The mark [6] stands for this setting: beagle dogs, PO 5 mg/kg, capsule, n = 6.
Setting [7] is: beagle dogs, PO 5 mg/kg, capsule, x ± s, n = 6.

Molecules are shown by their SMILES. Read-outs that look alike come from different tables or passages of the source. Where only a bound is given, the exact number is not on record here.

One may read the half-life as the time in which the quantity being followed falls by half. For orientation: Tmax means the time from dosing to the highest level. By AUC(0-t) is commonly meant exposure summed from dosing to a finite time, without extrapolation to infinity. Lower therefore signals less exposure. The term Cmax denotes the highest concentration seen after dosing.

Take `CN1CCc2ccc(OCCCN3CCC(c4noc5cc(F)ccc45)CC3)cc2C1=O` [Crystal Form A, 7-(3-(4-(6-fluorobenzo[d]isoazol-3-yl)piperidin-1-yl)propoxy)-2-methyl-3,4-dihydroisoquinolin-1(2H)-one]: the “Content (%)” value amounted to 97.21% in data set [1] (Day 0), 97.18% in data set [1] (setting [4]), 97.15% in data set [1] (setting [5]) and 97.13% in data set [1] (Day 10 at light (4500±500 lx)). For the same compound, the Crystal form result in data set [1] (Day 0), in data set [1] (setting [4]), in data set [1] (setting [5]) and in data set [1] (Day 10 at light (4500±500 lx)) was “Crystal Form A” in each case. The “content (all conditions)” value in data set [1] is not below 97.0%. Besides, the “morphology of crystal form” value in data set [1] is given as “stable”. The “Crystal form after ball milling” value in data set [2] (30 min), in data set [2] (4 h) and in data set [2] (6 h) was “Crystal Form A” throughout. In addition, in data set [2], the “change of crystal form under ball milling pressure” value was “its crystal form did not change”. Also, the half-life in data set [3] (both sexes, beagle, dog, plasma, po, 5 mg/kg, beagle dogs, PO 5 mg/kg, capsule, n = 6) was 2.9 h. Moreover, the Tmax in data set [3] (both sexes, beagle, dog, plasma, po, 5 mg/kg, beagle dogs, PO 5 mg/kg, capsule, n = 6, read-out: Tmax) turned out to be 2.6 h. For the same compound, the AUC(0-t) in data set [3] (both sexes, beagle, dog, plasma, po, 5 mg/kg, beagle dogs, PO 5 mg/kg, capsule, x ± s, n = 6) stood at 2840 ± 77.8 ng·h/mL. Moreover, in data set [3] (both sexes, beagle, dog, plasma, po, 5 mg/kg, beagle dogs, PO 5 mg/kg, capsule, x ± s, n = 6, read-out: AUC0-inf), the AUC0-inf was 2990 ± 82 ng·h/mL. Moreover, in data set [3] (both sexes, beagle, dog, plasma, po, 5 mg/kg, beagle dogs, PO 5 mg/kg, capsule, x ± s, n = 6, read-out: Cmax), the Cmax was determined as 645 ± 37.2 ng/mL. Moreover, the bioavailability in data set [3] (both sexes, beagle, dog, plasma, po, 5 mg/kg, read-out: relative bioavailability (F)) is 137%.

Turning to `CN1CCc2ccc(OCCCN3CCC(c4noc5cc(F)ccc45)CC3)cc2C1=O` [Crystal Form B, 7-(3-(4-(6-fluorobenzo[d]isoazol-3-yl)piperidin-1-yl)propoxy)-2-methyl-3,4-dihydroisoquinolin-1(2H)-one], in data set [1] (Day 0), the “Content (%)” value is reported as 96.70% and the Crystal form entry was “Crystal Form B”. Further, in data set [1] (setting [4]), the “Content (%)” value is 96.67% and the Crystal form entry is on record as “Crystal Form B +”. In addition, in data set [1] (setting [5]), the “Content (%)” value came out at 96.65% and the Crystal form result is listed as “Crystal Form B +”. Further, in data set [1] (Day 10 at light (4500±500 lx)), the “Content (%)” value is listed as 96.69% and the Crystal form result is listed as “Crystal Form B +”. In data set [1], the “content (all conditions)” value is not below 96.0% and the “morphology of crystal form” value is listed as “could not remain stable”. In addition, in data set [2] (30 min), the “Crystal form after ball milling” value is “Crystal Form B”. Moreover, in data set [2] (4 h), the “Crystal form after ball milling” value is on record as “Crystal Form B +”. Also, the “Crystal form after ball milling” value in data set [2] (6 h) was “Crystal Form B +”. Also, the “change of crystal form under ball milling pressure” value in data set [2] is listed as “its crystal form changed significantly”. Also, in data set [3] (setting [6]), the T1/2 worked out at 2.1 h and the Tmax worked out at 1.7 h. In data set [3] (setting [7]), this compound gave an AUC0-inf of 2186 ± 82.1 ng·h/mL, an AUC0-last of 2039 ± 81.9 ng·h/mL and a Cmax of 426 ± 32.75 ng/mL.

The record behind these values is US20220024905A1, “CRYSTALLINE FORM OF PROPANAMIDE DERIVATIVE AND PREPARATION METHOD THEREFOR” (NHWA PHARMA. CORPORATION, priority 2018, published 2022).
